{"source": "paper PMC5428509", "about": "“Irreversible inhibition of BTK kinase by a novel highly selective inhibitor CHMFL-BTK-11 suppresses inflammatory response in rheumatoid arthritis model” (Scientific Reports, 2017)", "key": {"[1]": {"target": "T1, BTK kinase (Bruton's tyrosine kinase) (Homo sapiens, UniProt Q06187)", "T1 construct": "purified BTK kinase", "assay": "ADP-Glo biochemical kinase assay; supported by Y551 autophosphorylation of wt vs C481S BTK and KinomeScan binding"}, "JAK3 kinase": {"target": "T2, JAK3 kinase (Homo sapiens, UniProt P52333)", "T2 construct": "purified JAK3 kinase protein", "assay": "ADP-Glo biochemical kinase assay; also strong binding in KinomeScan at […]"}, "PFCDPK1(P.falciparum)": {"target": "T3, PFCDPK1(P.falciparum) (Plasmodium falciparum, UniProt P62344)", "T3 construct": "gene CDPK1", "assay": "biochemical", "design": "KinomeScan competition binding panel (DiscoveRx), percent of control at 1 uM", "details": "read-out: Percent Control"}, "PRKX": {"target": "PRKX (Homo sapiens, UniProt P51817)", "sequence (P51817 whole entry)": "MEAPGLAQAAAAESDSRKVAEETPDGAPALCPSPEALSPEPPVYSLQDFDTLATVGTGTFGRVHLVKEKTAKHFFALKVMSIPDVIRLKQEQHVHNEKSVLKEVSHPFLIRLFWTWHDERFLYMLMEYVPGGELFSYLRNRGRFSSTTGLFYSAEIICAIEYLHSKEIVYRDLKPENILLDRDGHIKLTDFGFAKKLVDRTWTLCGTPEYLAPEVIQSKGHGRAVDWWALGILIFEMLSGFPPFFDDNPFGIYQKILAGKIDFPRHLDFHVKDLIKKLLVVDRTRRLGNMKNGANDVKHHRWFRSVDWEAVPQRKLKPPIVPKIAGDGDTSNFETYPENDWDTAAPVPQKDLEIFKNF", "assay": "biochemical", "design": "KinomeScan competition binding panel (DiscoveRx), percent of control at 1 uM", "details": "read-out: Percent Control", "in_short": "(§1)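 Selectivity profiled across 456 kinases/mutants by KinomeScan binding technology.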"}, "STK39": {"target": "STK39 (Homo sapiens, UniProt Q9UEW8)", "assay": "biochemical", "design": "KinomeScan competition binding panel (DiscoveRx), percent of control at 1 uM", "details": "read-out: Percent Control", "in_short": "as §1"}, "RET": {"target": "RET (Homo sapiens, UniProt P07949)", "assay": "biochemical", "design": "KinomeScan competition binding panel (DiscoveRx), percent of control at 1 uM", "details": "read-out: Percent Control", "in_short": "as §1"}, "MLK2": {"target": "T4, MLK2 (Homo sapiens, UniProt Q02779)", "T4 construct": "gene MAP3K10", "assay": "biochemical", "design": "KinomeScan competition binding panel (DiscoveRx), percent of control at 1 uM", "details": "read-out: Percent Control", "in_short": "as §1"}, "CSF1R": {"target": "CSF1R (Homo sapiens, UniProt P07333)", "sequence (P07333 whole entry)": "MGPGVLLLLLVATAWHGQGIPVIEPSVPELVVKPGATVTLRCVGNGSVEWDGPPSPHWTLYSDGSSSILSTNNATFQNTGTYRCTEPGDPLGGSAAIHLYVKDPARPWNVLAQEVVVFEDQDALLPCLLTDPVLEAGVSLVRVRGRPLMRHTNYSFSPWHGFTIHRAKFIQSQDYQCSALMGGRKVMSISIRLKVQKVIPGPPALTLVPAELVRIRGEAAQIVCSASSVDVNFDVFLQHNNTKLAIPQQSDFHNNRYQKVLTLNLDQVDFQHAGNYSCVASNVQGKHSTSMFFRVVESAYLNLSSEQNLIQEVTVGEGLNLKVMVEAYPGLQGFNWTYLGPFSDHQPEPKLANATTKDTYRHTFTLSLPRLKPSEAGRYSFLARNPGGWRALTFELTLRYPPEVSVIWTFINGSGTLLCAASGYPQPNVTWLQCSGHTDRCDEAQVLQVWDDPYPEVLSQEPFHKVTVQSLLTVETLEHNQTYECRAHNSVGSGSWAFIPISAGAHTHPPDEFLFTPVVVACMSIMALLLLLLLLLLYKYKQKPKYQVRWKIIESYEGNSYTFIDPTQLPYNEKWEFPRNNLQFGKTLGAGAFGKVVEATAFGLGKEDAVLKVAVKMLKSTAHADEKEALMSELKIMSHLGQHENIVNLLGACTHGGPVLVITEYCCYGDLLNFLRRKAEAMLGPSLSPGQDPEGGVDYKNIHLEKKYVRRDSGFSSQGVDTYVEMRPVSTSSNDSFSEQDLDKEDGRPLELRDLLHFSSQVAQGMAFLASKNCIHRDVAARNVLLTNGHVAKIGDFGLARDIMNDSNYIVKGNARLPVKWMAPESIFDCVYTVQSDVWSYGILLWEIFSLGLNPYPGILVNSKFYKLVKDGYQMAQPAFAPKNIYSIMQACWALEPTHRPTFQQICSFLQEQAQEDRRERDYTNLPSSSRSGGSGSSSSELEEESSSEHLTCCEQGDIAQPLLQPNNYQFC", "assay": "biochemical", "design": "KinomeScan competition binding panel (DiscoveRx), percent of control at 1 uM", "details": "read-out: Percent Control", "in_short": "as §1"}, "CDK7": {"target": "CDK7 (Homo sapiens, UniProt P50613)", "assay": "biochemical", "design": "KinomeScan competition binding panel (DiscoveRx), percent of control at 1 uM", "details": "read-out: Percent Control", "in_short": "as §1"}, "S6K1": {"target": "T5, S6K1 (Homo sapiens, UniProt P23443)", "T5 construct": "gene RPS6KB1", "assay": "biochemical", "design": "KinomeScan competition binding panel (DiscoveRx), percent of control at 1 uM", "details": "read-out: Percent Control", "in_short": "as §1"}, "[2]": {"target": "T6, ABL1(F317I)-nonphosphorylated (Homo sapiens, UniProt P00519, F317I)", "T6 construct": "nonphosphorylated", "T6 sequence (P00519 whole entry F317I)": "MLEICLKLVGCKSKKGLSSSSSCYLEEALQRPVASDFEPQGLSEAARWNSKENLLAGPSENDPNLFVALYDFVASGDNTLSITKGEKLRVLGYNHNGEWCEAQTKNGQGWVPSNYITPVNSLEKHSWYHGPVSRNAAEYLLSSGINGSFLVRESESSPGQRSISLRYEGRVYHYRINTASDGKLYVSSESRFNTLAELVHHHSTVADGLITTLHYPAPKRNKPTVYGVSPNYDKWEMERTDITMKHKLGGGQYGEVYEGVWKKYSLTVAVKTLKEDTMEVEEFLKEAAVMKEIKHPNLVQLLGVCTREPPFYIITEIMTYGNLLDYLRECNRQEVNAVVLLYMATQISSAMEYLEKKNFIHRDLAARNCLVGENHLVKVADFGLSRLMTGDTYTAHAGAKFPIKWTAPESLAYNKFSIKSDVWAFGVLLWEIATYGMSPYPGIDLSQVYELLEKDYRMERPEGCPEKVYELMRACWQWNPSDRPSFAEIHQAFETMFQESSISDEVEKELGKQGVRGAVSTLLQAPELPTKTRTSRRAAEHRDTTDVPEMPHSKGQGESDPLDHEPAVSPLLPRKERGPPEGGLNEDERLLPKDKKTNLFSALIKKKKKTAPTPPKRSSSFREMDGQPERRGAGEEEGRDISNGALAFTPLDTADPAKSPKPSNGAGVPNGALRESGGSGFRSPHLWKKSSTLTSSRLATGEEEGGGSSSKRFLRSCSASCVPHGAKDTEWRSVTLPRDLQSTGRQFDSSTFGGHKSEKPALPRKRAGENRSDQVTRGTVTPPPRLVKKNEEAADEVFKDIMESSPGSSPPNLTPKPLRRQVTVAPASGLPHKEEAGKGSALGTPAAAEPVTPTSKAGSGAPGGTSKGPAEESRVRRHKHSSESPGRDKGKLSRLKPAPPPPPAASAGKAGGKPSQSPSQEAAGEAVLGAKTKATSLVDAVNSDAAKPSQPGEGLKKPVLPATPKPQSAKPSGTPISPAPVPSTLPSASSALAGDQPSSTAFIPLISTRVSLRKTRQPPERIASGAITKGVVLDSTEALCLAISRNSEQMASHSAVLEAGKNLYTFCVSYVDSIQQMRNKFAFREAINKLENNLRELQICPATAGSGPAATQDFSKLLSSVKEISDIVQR", "assay": "biochemical", "design": "KinomeScan competition binding panel (DiscoveRx), percent of control at 1 uM", "details": "read-out: Percent Control", "in_short": "as §1"}, "DMPK2": {"target": "T7, DMPK2 (Homo sapiens, UniProt Q6DT37)", "T7 construct": "gene CDC42BPG", "assay": "biochemical", "design": "KinomeScan competition binding panel (DiscoveRx), percent of control at 1 uM", "details": "read-out: Percent Control", "in_short": "as §1"}, "CAMK2B": {"target": "CAMK2B (Homo sapiens, UniProt Q13554)", "sequence (Q13554 whole entry)": "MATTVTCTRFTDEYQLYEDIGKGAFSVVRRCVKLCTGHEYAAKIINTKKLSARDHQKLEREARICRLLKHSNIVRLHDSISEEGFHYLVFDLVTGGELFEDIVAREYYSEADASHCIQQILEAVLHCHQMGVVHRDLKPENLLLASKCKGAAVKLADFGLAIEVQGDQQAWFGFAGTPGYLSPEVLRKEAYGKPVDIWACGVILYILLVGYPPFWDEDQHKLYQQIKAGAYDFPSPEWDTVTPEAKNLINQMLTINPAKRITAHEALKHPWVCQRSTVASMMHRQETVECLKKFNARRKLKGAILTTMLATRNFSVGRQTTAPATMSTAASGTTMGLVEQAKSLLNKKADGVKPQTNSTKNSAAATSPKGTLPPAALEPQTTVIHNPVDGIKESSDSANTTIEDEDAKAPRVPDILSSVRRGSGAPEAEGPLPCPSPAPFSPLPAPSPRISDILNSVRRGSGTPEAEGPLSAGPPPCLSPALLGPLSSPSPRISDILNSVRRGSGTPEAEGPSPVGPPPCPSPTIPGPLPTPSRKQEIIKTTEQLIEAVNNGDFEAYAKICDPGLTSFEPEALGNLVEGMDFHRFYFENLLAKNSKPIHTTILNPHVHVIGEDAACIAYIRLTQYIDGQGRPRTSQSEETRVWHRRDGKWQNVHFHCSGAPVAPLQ", "assay": "biochemical", "design": "KinomeScan competition binding panel (DiscoveRx), percent of control at 1 uM", "details": "read-out: Percent Control", "in_short": "as §1"}, "MAPKAPK2": {"target": "MAPKAPK2 (Homo sapiens, UniProt P49137)", "assay": "biochemical", "design": "KinomeScan competition binding panel (DiscoveRx), percent of control at 1 uM", "details": "read-out: Percent Control", "in_short": "as §1"}, "TAOK3": {"target": "TAOK3 (Homo sapiens, UniProt Q9H2K8)", "assay": "biochemical", "design": "KinomeScan competition binding panel (DiscoveRx), percent of control at 1 uM", "details": "read-out: Percent Control", "in_short": "as §1"}, "CLK4": {"target": "CLK4 (Homo sapiens, UniProt Q9HAZ1)", "sequence (Q9HAZ1 whole entry)": "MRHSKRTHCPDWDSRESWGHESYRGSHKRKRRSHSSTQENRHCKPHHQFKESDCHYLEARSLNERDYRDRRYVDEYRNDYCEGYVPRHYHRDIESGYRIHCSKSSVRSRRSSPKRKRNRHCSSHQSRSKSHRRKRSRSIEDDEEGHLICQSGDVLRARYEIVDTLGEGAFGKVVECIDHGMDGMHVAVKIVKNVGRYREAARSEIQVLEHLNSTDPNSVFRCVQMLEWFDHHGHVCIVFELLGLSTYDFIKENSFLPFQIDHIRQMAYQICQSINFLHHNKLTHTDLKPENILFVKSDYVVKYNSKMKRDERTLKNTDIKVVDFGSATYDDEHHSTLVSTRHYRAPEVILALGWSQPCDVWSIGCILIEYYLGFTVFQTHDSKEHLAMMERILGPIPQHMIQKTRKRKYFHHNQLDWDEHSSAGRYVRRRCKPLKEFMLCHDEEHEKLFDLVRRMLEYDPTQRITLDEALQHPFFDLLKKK", "assay": "biochemical", "design": "KinomeScan competition binding panel (DiscoveRx), percent of control at 1 uM", "details": "read-out: Percent Control", "in_short": "as §1"}, "NEK1": {"target": "NEK1 (Homo sapiens, UniProt Q96PY6)", "assay": "biochemical", "design": "KinomeScan competition binding panel (DiscoveRx), percent of control at 1 uM", "details": "read-out: Percent Control", "in_short": "as §1"}, "FGFR1": {"target": "FGFR1 (Homo sapiens, UniProt P11362)", "sequence (P11362 whole entry)": "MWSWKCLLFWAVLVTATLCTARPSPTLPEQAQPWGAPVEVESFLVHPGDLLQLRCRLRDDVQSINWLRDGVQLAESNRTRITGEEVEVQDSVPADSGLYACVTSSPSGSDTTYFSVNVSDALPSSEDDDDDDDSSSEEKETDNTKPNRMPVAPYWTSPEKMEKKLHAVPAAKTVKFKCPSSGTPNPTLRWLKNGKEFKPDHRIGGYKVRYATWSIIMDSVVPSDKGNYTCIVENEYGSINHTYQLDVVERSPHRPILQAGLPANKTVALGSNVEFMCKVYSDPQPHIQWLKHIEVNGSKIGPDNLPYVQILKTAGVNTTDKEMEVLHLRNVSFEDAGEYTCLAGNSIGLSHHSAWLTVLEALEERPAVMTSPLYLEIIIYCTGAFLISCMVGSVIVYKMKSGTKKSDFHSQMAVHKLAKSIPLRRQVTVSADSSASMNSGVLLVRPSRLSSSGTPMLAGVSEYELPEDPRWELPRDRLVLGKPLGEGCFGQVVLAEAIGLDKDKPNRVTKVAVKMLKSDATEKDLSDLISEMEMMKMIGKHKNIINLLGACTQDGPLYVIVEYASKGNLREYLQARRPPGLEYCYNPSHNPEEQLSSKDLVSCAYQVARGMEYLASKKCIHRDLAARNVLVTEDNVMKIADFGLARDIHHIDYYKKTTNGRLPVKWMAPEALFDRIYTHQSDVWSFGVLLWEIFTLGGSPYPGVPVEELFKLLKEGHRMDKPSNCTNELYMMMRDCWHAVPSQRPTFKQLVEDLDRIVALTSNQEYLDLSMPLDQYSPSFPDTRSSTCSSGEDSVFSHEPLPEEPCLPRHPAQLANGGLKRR", "assay": "biochemical", "design": "KinomeScan competition binding panel (DiscoveRx), percent of control at 1 uM", "details": "read-out: Percent Control", "in_short": "as §1"}, "MYLK4": {"target": "MYLK4 (Homo sapiens, UniProt Q86YV6)", "sequence (Q86YV6 whole entry)": "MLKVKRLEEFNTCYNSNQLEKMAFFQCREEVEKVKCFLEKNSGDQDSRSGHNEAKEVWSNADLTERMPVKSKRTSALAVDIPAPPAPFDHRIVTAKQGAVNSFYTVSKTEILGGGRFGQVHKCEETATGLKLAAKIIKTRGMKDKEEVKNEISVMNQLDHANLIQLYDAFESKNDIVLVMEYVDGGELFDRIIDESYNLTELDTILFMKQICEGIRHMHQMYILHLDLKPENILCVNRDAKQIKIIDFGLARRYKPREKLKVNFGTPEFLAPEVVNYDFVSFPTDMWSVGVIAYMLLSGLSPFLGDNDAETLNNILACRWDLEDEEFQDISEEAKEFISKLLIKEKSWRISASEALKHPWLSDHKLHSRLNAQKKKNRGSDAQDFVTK", "assay": "biochemical", "design": "KinomeScan competition binding panel (DiscoveRx), percent of control at 1 uM", "details": "read-out: Percent Control", "in_short": "as §1"}, "ACVR1B": {"target": "ACVR1B (Homo sapiens, UniProt P36896)", "assay": "biochemical", "design": "KinomeScan competition binding panel (DiscoveRx), percent of control at 1 uM", "details": "read-out: Percent Control", "in_short": "as §1"}, "BRSK2": {"target": "BRSK2 (Homo sapiens, UniProt Q8IWQ3)", "assay": "biochemical", "design": "KinomeScan competition binding panel (DiscoveRx), percent of control at 1 uM", "details": "read-out: Percent Control", "in_short": "as §1"}, "SRMS": {"target": "SRMS (Homo sapiens, UniProt Q9H3Y6)", "assay": "biochemical", "design": "KinomeScan competition binding panel (DiscoveRx), percent of control at 1 uM", "details": "read-out: Percent Control", "in_short": "as §1"}, "[3]": {"target": "T8, ABL1(F317L)-nonphosphorylated (Homo sapiens, UniProt P00519, F317L)", "T8 construct": "nonphosphorylated", "T8 sequence (P00519 whole entry F317L)": "as the sequence (P00519 whole entry F317I) above, with I317L counted along it", "assay": "biochemical", "design": "KinomeScan competition binding panel (DiscoveRx), percent of control at 1 uM", "details": "read-out: Percent Control", "in_short": "as §1"}}}
{"smiles": "C=CC(=O)Nc1cc(-n2c(=O)ccc3cnc4ccc(-n5cccn5)cc4c32)ccc1C", "note": "[CHMFL-BTK-11]", "values": [{"measurement": "IC50", "setting": "[1]", "value": 26.8, "unit": "nM"}, {"measurement": "IC50", "setting": "JAK3 kinase", "value": 227, "unit": "nM"}, {"measurement": "remaining binding at 1 µM", "setting": "PFCDPK1(P.falciparum)", "value": 97, "unit": "%"}, {"measurement": "remaining binding at 1 µM", "setting": "PRKX", "value": 100, "unit": "%"}, {"measurement": "remaining binding at 1 µM", "setting": "STK39", "value": 72, "unit": "%"}, {"measurement": "remaining binding at 1 µM", "setting": "RET", "value": 100, "unit": "%"}, {"measurement": "remaining binding at 1 µM", "setting": "MLK2", "value": 94, "unit": "%"}, {"measurement": "remaining binding at 1 µM", "setting": "CSF1R", "value": 91, "unit": "%"}, {"measurement": "remaining binding at 1 µM", "setting": "CDK7", "value": 89, "unit": "%"}, {"measurement": "remaining binding at 1 µM", "setting": "S6K1", "value": 100, "unit": "%"}, {"measurement": "remaining binding at 1 µM", "setting": "[2]", "value": 100, "unit": "%"}, {"measurement": "remaining binding at 1 µM", "setting": "DMPK2", "value": 99, "unit": "%"}, {"measurement": "remaining binding at 1 µM", "setting": "CAMK2B", "value": 100, "unit": "%"}, {"measurement": "remaining binding at 1 µM", "setting": "MAPKAPK2", "value": 99, "unit": "%"}, {"measurement": "remaining binding at 1 µM", "setting": "TAOK3", "value": 93, "unit": "%"}, {"measurement": "remaining binding at 1 µM", "setting": "CLK4", "value": 90, "unit": "%"}, {"measurement": "remaining binding at 1 µM", "setting": "NEK1", "value": 82, "unit": "%"}, {"measurement": "remaining binding at 1 µM", "setting": "FGFR1", "value": 88, "unit": "%"}, {"measurement": "remaining binding at 1 µM", "setting": "MYLK4", "value": 100, "unit": "%"}, {"measurement": "remaining binding at 1 µM", "setting": "ACVR1B", "value": 100, "unit": "%"}, {"measurement": "remaining binding at 1 µM", "setting": "BRSK2", "value": 86, "unit": "%"}, {"measurement": "remaining binding at 1 µM", "setting": "SRMS", "value": 88, "unit": "%"}, {"measurement": "remaining binding at 1 µM", "setting": "[3]", "value": 96, "unit": "%"}]}
